Experimental findings from US8546385B2, “Benzoic pyrrolopyridine derivatives” (Laboratoires FOURNIER SA, priority 2010, dated 2013) are described below.

Read-outs that look alike come from different tables or passages of the source.

The target in experiment [1] is hNurr1_RXRγFL (NURR-1/RXRγ heterodimer) (Homo sapiens, UniProt P48443). As to the kind of experiment: Transactivation test (luciferase reporter) in Cos-7 cells co-transfected with NURR-1-Gal4 and RXRγ. The note with it: percentage efficacy relative to the reference XCT0135908 at 2×10^−5 M (=100%), read-out: hNurr1_RXRγFL Eff (%). Type of experiment: cell-based. The procedure:
The ability of the compounds according to the invention to behave as activators of the heterodimers formed by the NURR-1 nuclear receptor and the RXR nuclear receptors was measured, by means of an in vitro test.
A transactivation test was used as a primary screening test. Cos-7 cells were co-transfected with a plasmid expressing a construct of the NURR-1-Ga14 human receptor, a plasmid expressing the RXR human receptor (RXRα or RXRγ receptor) and a reporter plasmid 5Gal4pGL3-TK-Luc. The transfections were performed using a chemical agent (Jet PEI).
The transfected cells were distributed into 384-well plates and left to stand for 24 hours.
After 24 hours, the culture medium was changed. The test products were added (final concentration of between 10^−4 and 3×10^−10 M) in the culture medium. After incubating overnight, the luciferase expression was measured after addition of “SteadyGlo” according to the manufacturer's instructions (Promega).
4-[[6-Methyl-2-phenyl-5-(2-propenyl)-4-pyrimidinyl]amino]benzoic acid (reference XCT0135908, described by Wallen-Mackenzie et al. 2003, Genes & Development 17: 3036-3047) at 2×10^−5 M (RXR agonist) was used as reference.
The levels of induction were calculated relative to the basal activity of each heterodimer. The results were expressed as a percentage of the level of induction relative to the level of induction obtained with the reference (the level of induction of the reference is arbitrarily equal to 100%).
In general terms: Reporter assays use an easily measured gene product as a stand-in for the process of interest.

The target of experiment [2] is hNurr1_RXRαFL (NURR-1/RXRα heterodimer) (Homo sapiens, UniProt P19793). Kind of experiment: Transactivation test (luciferase reporter) in Cos-7 cells co-transfected with NURR-1-Gal4 and RXRα. It counts as cell-based. The procedure: The ability of the compounds according to the invention to behave as activators of the heterodimers formed by the NURR-1 nuclear receptor and the RXR nuclear receptors was measured, by means of an in vitro test. A transactivation test was used as a primary screening test. […] The transfections were performed using a chemical agent (Jet PEI). The transfected cells were distributed into 384-well plates and left to stand for 24 hours. After 24 hours, the culture medium was changed. […] After incubating overnight, the luciferase expression was measured after addition of “SteadyGlo” according to the manufacturer's instructions (Promega). […] The levels of induction were calculated relative to the basal activity of each heterodimer. The results were expressed as a percentage of the level of induction relative to the level of induction obtained with the reference (the level of induction of the reference is arbitrarily equal to 100%).
Chain of hNurr1_RXRαFL (NURR-1/RXRα heterodimer) (P19793 whole entry, the tested form may be a part): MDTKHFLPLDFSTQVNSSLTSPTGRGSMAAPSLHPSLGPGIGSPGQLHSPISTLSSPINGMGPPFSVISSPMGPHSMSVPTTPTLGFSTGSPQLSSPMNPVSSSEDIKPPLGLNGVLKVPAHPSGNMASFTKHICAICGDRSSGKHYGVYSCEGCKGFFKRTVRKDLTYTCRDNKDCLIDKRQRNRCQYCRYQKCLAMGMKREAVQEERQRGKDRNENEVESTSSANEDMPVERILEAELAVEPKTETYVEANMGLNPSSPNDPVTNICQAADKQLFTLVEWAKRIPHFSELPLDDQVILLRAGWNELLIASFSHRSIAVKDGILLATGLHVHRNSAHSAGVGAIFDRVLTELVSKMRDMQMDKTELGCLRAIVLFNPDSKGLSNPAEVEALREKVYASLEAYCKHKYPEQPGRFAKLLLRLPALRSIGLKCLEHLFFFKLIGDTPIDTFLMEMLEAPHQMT
Chain of hNurr1_RXRαFL (NURR-1/RXRα heterodimer) (P43354 whole entry, further chain, the tested form may be a part): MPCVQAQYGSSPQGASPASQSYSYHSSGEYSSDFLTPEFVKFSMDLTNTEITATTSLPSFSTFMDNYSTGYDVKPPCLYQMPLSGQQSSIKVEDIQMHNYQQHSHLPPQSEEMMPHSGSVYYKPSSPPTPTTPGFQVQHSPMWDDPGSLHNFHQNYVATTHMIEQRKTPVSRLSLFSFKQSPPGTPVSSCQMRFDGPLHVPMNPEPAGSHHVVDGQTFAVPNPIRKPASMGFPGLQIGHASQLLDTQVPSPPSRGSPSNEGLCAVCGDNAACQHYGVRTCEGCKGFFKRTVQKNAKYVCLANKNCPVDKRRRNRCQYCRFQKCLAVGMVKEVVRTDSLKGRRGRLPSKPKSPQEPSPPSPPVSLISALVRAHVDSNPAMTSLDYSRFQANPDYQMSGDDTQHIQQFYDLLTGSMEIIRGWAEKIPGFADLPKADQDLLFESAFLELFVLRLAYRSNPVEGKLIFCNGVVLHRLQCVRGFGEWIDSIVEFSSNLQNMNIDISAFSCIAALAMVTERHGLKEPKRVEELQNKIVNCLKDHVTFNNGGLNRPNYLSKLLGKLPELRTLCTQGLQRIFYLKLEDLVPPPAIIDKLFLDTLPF

Setting [3] is: percentage efficacy relative to the reference XCT0135908 at 2×10^−5 M (=100%), read-out: hNurr1_RXRαFL Eff (%).

Chain of hNurr1_RXRγFL (NURR-1/RXRγ heterodimer) (P48443 whole entry, the tested form may be a part): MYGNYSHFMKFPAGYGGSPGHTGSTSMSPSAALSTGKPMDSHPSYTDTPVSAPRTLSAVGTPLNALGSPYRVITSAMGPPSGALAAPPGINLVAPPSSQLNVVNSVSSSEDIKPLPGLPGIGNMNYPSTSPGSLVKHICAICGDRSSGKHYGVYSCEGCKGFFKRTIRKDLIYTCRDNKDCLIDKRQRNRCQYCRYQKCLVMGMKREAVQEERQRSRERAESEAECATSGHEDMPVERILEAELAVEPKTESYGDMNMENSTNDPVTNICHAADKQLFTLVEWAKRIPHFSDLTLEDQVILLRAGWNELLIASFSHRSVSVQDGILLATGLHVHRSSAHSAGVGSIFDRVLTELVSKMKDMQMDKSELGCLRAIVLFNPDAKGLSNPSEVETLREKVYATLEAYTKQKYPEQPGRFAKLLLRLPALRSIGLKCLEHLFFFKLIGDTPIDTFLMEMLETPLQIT
Chain of hNurr1_RXRγFL (NURR-1/RXRγ heterodimer) (P43354 whole entry partner, the tested form may be a part): as the sequence (P43354 whole entry, further chain, the tested form may be a part) above

As for `CC(C)(C)c1cccc(S(=O)(=O)n2c(Cc3ccc(C(=O)O)s3)cc3nc(C(F)(F)F)ccc32)c1` [Example 1, 5-[[1-[[3-(1,1-dimethylethyl)phenyl]sulfonyl]-5-(trifluoromethyl)-1H-pyrrolo[3,2-b]pyridin-2-yl]methyl]thiophene-2-carboxylic acid], the Emax was 64% in experiment [1] and 67% in experiment [2] (setting [3]). With `CC(C)(C)c1cccc(S(=O)(=O)n2c(Cc3cccc(C(=O)O)c3)cc3cc(C(F)(F)F)ncc32)c1` [Example 2, 3-[[1-[[3-(1,1-dimethylethyl)phenyl]sulfonyl]-5-(trifluoromethyl)-1H-pyrrolo[2,3-c]pyridin-2-yl]methyl]-2-benzoic acid], the Emax is 86% in experiment [1] and 70% in experiment [2] (setting [3]). For `CC(C)(C)c1cccc(S(=O)(=O)n2c(Cc3cc(C(=O)O)co3)cc3cc(C(F)(F)F)ncc32)c1` [Example 4, 5-[[1-[[3-(1,1-dimethylethyl)phenyl]sulfonyl]-5-(trifluoromethyl)-1H-pyrrolo[2,3-c]pyridin-2-yl]methyl]furan-3-carboxylic acid], the Emax in experiment [2] (setting [3]) was determined as 104%. Same read-out and setting: under `CC(C)(C)c1cccc(S(=O)(=O)n2c(Cc3cncc(C(=O)O)c3)cc3cc(C(F)(F)F)ncc32)c1` [Example 5, 5-[[1-[[3-(1,1-dimethylethyl)phenyl]sulfonyl]-5-(trifluoromethyl)-1H-pyrrolo[2,3-c]pyridin-2-yl]methyl]pyridine-3-carboxylic acid] stands 94%; under `CC(C)(C)c1cccc(S(=O)(=O)n2c(Cc3csc(C(=O)O)c3)cc3cc(C(F)(F)F)ncc32)c1` [Example 6, 4-[[1-[[3-(1,1-dimethylethyl)phenyl]sulfonyl]-5-(trifluoromethyl)-1H-pyrrolo[2,3-c]pyridin-2-yl]methyl]thiophene-2-carboxylic acid], 137%. Same read-out and setting: to `CC(C)(C)c1cccc(S(=O)(=O)n2c(Cc3ccc(F)c(C(=O)O)c3)cc3cc(C(F)(F)F)ncc32)c1` [Example 7, 5-[[1-[[3-(1,1-dimethylethyl)phenyl]sulfonyl]-5-(trifluoromethyl)-1H-pyrrolo[2,3-c]pyridin-2-yl]methyl]-2-fluorobenzoic acid] belongs 119%.

Consider `CC(C)(C)c1cccc(S(=O)(=O)n2c(Cc3nc(C(=O)O)cs3)cc3nc(C(F)(F)F)ccc32)c1` [Example 8, 2-[[1-[[3-(1,1-dimethylethyl)phenyl]sulfonyl]-5-(trifluoromethyl)-1H-pyrrolo[3,2-b]pyridin-2-yl]methyl]thiazole-4-carboxylic acid], for which the Emax in experiment [1] was 72%; in experiment [2] (setting [3]) it was 103%. As to `CN1CCOc2ccc(S(=O)(=O)n3c(Cc4ccc(C(=O)O)cc4)cc4cc(C(F)(F)F)ncc43)cc21` [Example 12, 4-[[1-[(3,4-dihydro-4-methyl-2H-1,4-benzoxazin-6-yl)sulfonyl]-5-(trifluoromethyl)-1H-pyrrolo[2,3-c]pyridin-2-yl]methyl]benzoic acid], the Emax in experiment [1] was 75%; in experiment [2] (setting [3]), 81%.

As for `CC(C)c1ccc(S(=O)(=O)n2c(Cc3ccc(C(=O)O)cc3)cc3cc(C(F)(F)F)ncc32)cc1` [Example 14, 4-[[1-[[4-(1-methylethyl)phenyl]sulfonyl]-5-(trifluoromethyl)-1H-pyrrolo[2,3-c]pyridin-2-yl]methyl]benzoic acid], the Emax in experiment [1] was determined as 54%; in experiment [2] (setting [3]), 64%.

For the compound `CC(C)c1ccc(S(=O)(=O)n2c(Cc3ccc(C(=O)O)cc3)cc3nc(C(F)(F)F)ccc32)cc1` [Example 16, 4-[1-(4-(1-methylethyl)phenylsulfonyl)-5-trifluoromethyl-1H-pyrrolo[3,2-b]pyridin-2-ylmethyl]benzoic acid], the Emax in experiment [1] was 53%; in experiment [2] (setting [3]), 68%. As to `CN1CCOc2ccc(S(=O)(=O)n3c(Cc4ccc(C(=O)O)cc4)cc4cc(C(F)(F)F)cnc43)cc21` [Example 18, 4-[[1-[(3,4-dihydro-4-methyl-2H-1,4-benzoxazin-6-yl)sulfonyl]-5-(trifluoromethyl)-1H-pyrrolo[2,3-b]pyridin-2-yl]methyl]benzoic acid], the Emax in experiment [1] came to 69%; in experiment [2] (setting [3]), 62%.

As to `CC(C)c1ccc(S(=O)(=O)n2c(Cc3ccc(C(=O)O)cc3)cc3cc(Cl)ncc32)cc1` [Example 20, 4-[[5-chloro-1-[[4-(1-methylethyl)phenyl]sulfonyl]-1H-pyrrolo[2,3-c]pyridin-2-yl]methyl]benzoic acid], the Emax turned out to be 27% in experiment [1] and 42% in experiment [2] (setting [3]). Turning to `CC(C)(C)c1cccc(S(=O)(=O)n2c(Cc3ccc(C(=O)O)cc3)cc3nc(C(F)(F)F)ccc32)c1` [Example 22, 4-[[1-[[3-(1,1-dimethylethyl)phenyl]sulfonyl]-5-(trifluoromethyl)-1H-pyrrolo[3,2-b]pyridin-2-yl]methyl]benzoic acid], the Emax in experiment [1] was 68%; in experiment [2] (setting [3]) it was 92%.

Take `CC(C)c1cccc(S(=O)(=O)n2c(Cc3ccc(C(=O)O)cc3)cc3cc(C(F)(F)F)cnc32)c1` [Example 25, 4-[[1-[[3-(1-methylethyl)phenyl]sulfonyl]-5-(trifluoromethyl)-1H-pyrrolo[2,3-b]pyridin-2-yl]methyl]benzoic acid]: the values for the Emax in experiment [1] and in experiment [2] (setting [3]) were 52% and 57%, respectively. Take `CC(C)(C)c1cccc(S(=O)(=O)n2c(Cc3ccc(C(=O)O)cc3)cc3cc(C(F)(F)F)cnc32)c1` [Example 28, 4-[[1-[[3-(1,1-dimethylethyl)phenyl]sulfonyl]-5-(trifluoromethyl)-1H-pyrrolo[2,3-b]pyridin-2-yl]methyl]benzoic acid]: the values for the Emax in experiment [1] and in experiment [2] (setting [3]) were 51% and 66%, respectively.

Take `CC(C)c1ccc(S(=O)(=O)n2c(Cc3ccc(C(=O)O)cc3)cc3cc(Cl)cnc32)cc1` [Example 31, 4-[[5-chloro-1-[[4-(1-methylethyl)phenyl]sulfonyl]-1H-pyrrolo[2,3-b]pyridin-2-yl]methyl]benzoic acid]: the Emax in experiment [1] turned out to be 48%; in experiment [2] (COS-7, read-out: hNurr1_RXRαFL Eff (%), percentage efficacy relative to the reference XCT0135908 at 2×10^−5 M (=100%)) it was 63%. On to `CC(C)(C)c1cccc(S(=O)(=O)n2c(C(O)c3ccc(C(=O)O)s3)cc3nc(C(F)(F)F)ccc32)c1` (stereo not shown) [Example 32, 5-{hydroxy[1-(3-(1,1-dimethylethyl)phenylsulfonyl)-5-trifluoromethyl-1H-pyrrolo[3,2-b]pyridin-2-yl]methyl}thiophene-2-carboxylic acid], for which the Emax in experiment [2] (setting [3]) came out at 84%. Still for that read-out and setting: under `CCN(CC)C(=O)c1ccc(C(F)c2cc3nc(C(F)(F)F)ccc3n2S(=O)(=O)c2cccc(C(C)(C)C)c2)s1` (stereo not shown) [Example 33, 5-[[1-[[3-(1,1-dimethylethyl)phenyl]sulfonyl]-5-(trifluoromethyl)-1H-pyrrolo[3,2-b]pyridin-2-yl]fluoromethyl]-N,N-diethyl-2-thiophenecarboxamide] stands 92%; under `CC(C)(C)c1cccc(S(=O)(=O)n2c(C(=O)c3ccc(C(=O)O)s3)cc3nc(C(F)(F)F)ccc32)c1` [Example 34, 5-{1-(3-(1,1-dimethylethyl)phenylsulfonyl)-5-trifluoromethyl-1H-pyrrolo[3,2-b]pyridine-2-carbonyl}thiophene-2-carboxylic acid], 31%; under `Cc1c(Cc2ccc(C(=O)O)cc2)n(S(=O)(=O)c2cccc(C(C)(C)C)c2)c2ccc(C(F)(F)F)nc12` [Example 37, 4-[[1-[[3-(1,1-dimethylethyl)phenyl]sulfonyl]-3-methyl-5-(trifluoro-methyl)-1H-pyrrolo[3,2-b]pyridin-2-yl]methyl]benzoic acid], 67%. Still for that read-out and setting: to `CC(C)c1ccc(S(=O)(=O)n2c(Cc3ccc(C(=O)O)s3)cc3cc(Cl)cnc32)cc1` [Example 38, 5-[[1-[[4-(1,1-methylethyl)phenyl]sulfonyl]-5-chloro-1H-pyrrolo[2,3-b]pyridin-2-yl]methyl]thiophene-2-carboxylic acid] belongs 80%; to `CC(C)(C)c1cccc(S(=O)(=O)n2c(Cc3ccc(C(=O)NS(C)(=O)=O)cc3)cc3nc(C(F)(F)F)ccc32)c1` [Example 39, N-{4-[1-(3-tert-butylbenzenesulfonyl)-5-trifluoromethyl-1H-pyrrolo[3,2-b]pyridin-2-ylmethyl]benzoyl}methanesulfonamide], 51%.
